Assays:
Type in all cases: in vivo
[1] = tested on: waterhemp (common waterhemp, Amaranthus rudis); experiment: Test C preemergence; conditions: Amaranthus tuberculatus, pre-emergence, scale 0 to 100, read-out: Plant response rating, Waterhemp; for pest or weed control at 31 g/ha: 31 g ai/ha; for pest or weed control at 31 g/ha / pest or weed control at 62 g/ha / pest or weed control at 125 g/ha: preemergence; for pest or weed control at 62 g/ha: 62 g ai/ha; for pest or weed control at 125 g/ha: 125 g ai/ha; for pest or weed control at 16 g/ha: Preemergence, 16 g ai/ha
In short: (§1)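 After preemergence treatment of seeds in loam-sand soil or foliar treatment at the 1- to 4-leaf stage of plants in peat/vermiculite medium, pots were kept 13-15 days in the greenhouse. Each was then scored visually, 0 meaning no effect and 100 complete control.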

[2] = tested on: Italian ryegrass (Lolium multiflorum); experiment: Test C preemergence; conditions: Lolium multiflorum, pre-emergence, 336 h, scale 0 to 100, read-out: Plant response rating, Ryegrass, Italian; for pest or weed control at 31 g/ha: 31 g ai/ha; for pest or weed control at 31 g/ha / pest or weed control at 62 g/ha / pest or weed control at 125 g/ha: preemergence; for pest or weed control at 62 g/ha: 62 g ai/ha; for pest or weed control at 125 g/ha: 125 g ai/ha; for pest or weed control at 16 g/ha: Preemergence, 16 g ai/ha
In short: as §1

[3] = tested on: sedge, umbrella (small-flower umbrella sedge, Cyperus difformis); experiment: Test B flooded paddy; conditions: Cyperus difformis, 336 h; 250 g ai/ha, Flood, 13 to 15 days, scale 0 (no effect) to 100 (complete control); read-out: Plant response rating, Sedge, Umbrella
In short: (§2)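 Flooded 3 cm over soil; compound into paddy water; depth kept constant. Greenhouse 13–15 d.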

[4] = tested on: barnyardgrass (Echinochloa crus-galli); experiment: Test B flooded paddy; conditions: Echinochloa crus-galli, 336 h; 250 g ai/ha, Flood, 13 to 15 days, scale 0 (no effect) to 100 (complete control); read-out: Plant response rating, Barnyardgrass
In short: as §2

[5] = tested on: rice (Oryza sativa); experiment: Test B flooded paddy; conditions: Oryza sativa, 336 h; 250 g ai/ha, Flood, 13 to 15 days, scale 0 (no effect) to 100 (complete control); read-out: Plant response rating, Rice
In short: as §2

[6] = tested on: ducksalad (Heteranthera limosa); experiment: Test B flooded paddy; conditions: Heteranthera limosa, 336 h; 250 g ai/ha, Flood, 13 to 15 days, scale 0 (no effect) to 100 (complete control); read-out: Plant response rating, Ducksalad
In short: as §2

[7] = tested on: blackgrass (Alopecurus myosuroides); experiment: Test A postemergence; conditions: Alopecurus myosuroides, post-emergence, 240 h, 0 to 100 scale, read-out: Plant response rating, Blackgrass; for pest or weed control at 31 g/ha: 31 g ai/ha; for pest or weed control at 125 g/ha: 125 g ai/ha
In short: (§3)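 Scoring: eye-based comparison with untreated controls, 0 for no effect through 100 for complete control, at about day 10. Treatments: directed soil spray preemergence; foliar spray postemergence on 2–10 cm plants at the one- to two-leaf stage. Medium: loam soil with sand.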

[8] = tested on: kochia (Kochia scoparia); experiment: Test A postemergence; conditions: Bassia scoparia, post-emergence, 240 h, 0 to 100 scale, read-out: Plant response rating, Kochia; for pest or weed control at 31 g/ha: 31 g ai/ha; for pest or weed control at 125 g/ha: 125 g ai/ha
In short: as §3

[9] = tested on: corn (Zea mays); experiment: Test A postemergence; conditions: Zea mays, post-emergence, 240 h, 0 to 100 scale; for Corn plant response rating (crop injury, 0 = no effect, 100 = complete kill) at 31 g/ha: 31 g ai/ha; for Corn plant response rating (crop injury, 0 = no effect, 100 = complete kill) at 125 g/ha: 125 g ai/ha
In short: as §3

[10] = tested on: wheat (Triticum aestivum); experiment: Test A postemergence; conditions: Triticum aestivum, post-emergence, 240 h, 0 to 100 scale, read-out: Plant response rating, Wheat; for plant injury at 31 g/ha: 31 g ai/ha; for plant injury at 125 g/ha: 125 g ai/ha
In short: as §3

[11] = tested on: Italian ryegrass (Lolium multiflorum); experiment: Test A postemergence; conditions: Lolium multiflorum, post-emergence, 240 h, 0 to 100 scale, read-out: Plant response rating, Ryegrass, Italian; for pest or weed control at 31 g/ha: 31 g ai/ha; for pest or weed control at 125 g/ha: 125 g ai/ha
In short: as §3

[12] = tested on: galium (catchweed bedstraw, Galium aparine); experiment: Test A postemergence; conditions: Galium, post-emergence, 240 h, 0 to 100 scale, read-out: Plant response rating, Galium; for pest or weed control at 31 g/ha: 31 g ai/ha; for pest or weed control at 125 g/ha: 125 g ai/ha
In short: as §3

[13] = tested on: barnyardgrass (Echinochloa crus-galli); experiment: Test A postemergence; conditions: Echinochloa crus-galli, post-emergence, 240 h, 0 to 100 scale, read-out: Plant response rating, Barnyardgrass; for pest or weed control at 31 g/ha: 31 g ai/ha; for pest or weed control at 125 g/ha: 125 g ai/ha
In short: as §3

[14] = tested on: giant foxtail (Setaria faberii); experiment: Test A postemergence; conditions: Setaria faberi, post-emergence, 240 h, 0 to 100 scale, read-out: Plant response rating, Foxtail, Giant; for pest or weed control at 31 g/ha: 31 g ai/ha; for pest or weed control at 125 g/ha: 125 g ai/ha
In short: as §3

[15] = tested on: ragweed (common ragweed, Ambrosia elatior); experiment: Test A postemergence; conditions: Ambrosia artemisiifolia, post-emergence, 240 h, 0 to 100 scale, read-out: Plant response rating, Ragweed; for pest or weed control at 31 g/ha: 31 g ai/ha; for pest or weed control at 125 g/ha: 125 g ai/ha
In short: as §3

[16] = tested on: pigweed (Amaranthus retroflexus); experiment: Test A postemergence; conditions: Amaranthus retroflexus, post-emergence, 240 h, 0 to 100 scale, read-out: Plant response rating, Pigweed; for pest or weed control at 31 g/ha: 31 g ai/ha; for pest or weed control at 125 g/ha: 125 g ai/ha
In short: as §3

[17] = tested on: kochia (Kochia scoparia); experiment: Test A preemergence; conditions: Bassia scoparia, pre-emergence, 240 h, 0 to 100 scale (0 no effect, 100 complete control), read-out: Kochia plant response rating; for pest or weed control at 31 g/ha: 31 g ai/ha; for pest or weed control at 125 g/ha: 125 g ai/ha
In short: as §3

[18] = tested on: Italian ryegrass (Lolium multiflorum); experiment: Test A preemergence; conditions: Lolium multiflorum, pre-emergence, 240 h, 0 to 100 scale (0 no effect, 100 complete control), read-out: Ryegrass, Italian plant response rating; for pest or weed control at 31 g/ha: 31 g ai/ha; for pest or weed control at 125 g/ha: 125 g ai/ha
In short: as §3

[19] = tested on: barnyardgrass (Echinochloa crus-galli); experiment: Test A preemergence; conditions: Echinochloa crus-galli, pre-emergence, 240 h; for pest or weed control at 31 g/ha: 31 g ai/ha, 0 to 100 scale (0 no effect, 100 complete control), read-out: Barnyardgrass plant response rating; for pest or weed control at 125 g/ha: 125 g ai/ha, 0 to 100 scale, read-out: Plant response rating, Barnyardgrass
In short: as §3

[20] = tested on: giant foxtail (Setaria faberii); experiment: Test A preemergence; conditions: Setaria faberi, pre-emergence, 240 h, 0 to 100 scale (0 no effect, 100 complete control), read-out: Foxtail, Giant plant response rating; for pest or weed control at 31 g/ha: 31 g ai/ha; for pest or weed control at 125 g/ha: 125 g ai/ha
In short: as §3

[21] = tested on: ragweed (common ragweed, Ambrosia elatior); experiment: Test A preemergence; conditions: Ambrosia artemisiifolia, pre-emergence, 240 h, 0 to 100 scale (0 no effect, 100 complete control), read-out: Ragweed plant response rating; for pest or weed control at 31 g/ha: 31 g ai/ha; for pest or weed control at 125 g/ha: 125 g ai/ha
In short: as §3

[22] = tested on: pigweed (Amaranthus retroflexus); experiment: Test A preemergence; conditions: Amaranthus retroflexus, pre-emergence, 240 h, 0 to 100 scale (0 no effect, 100 complete control), read-out: Pigweed plant response rating; for pest or weed control at 31 g/ha: 31 g ai/ha; for pest or weed control at 125 g/ha: 125 g ai/ha
In short: as §3

Compound: Fc1cnc(Oc2c(F)ccc(F)c2Oc2ncc(F)cn2)nc1 [Compound 29, 2,2′-[(3,6-difluoro-1,2-phenylene)bis(oxy)]bis[5-fluoropyrimidine]]
- pest or weed control at 31 g/ha [1]: 100%
- pest or weed control at 62 g/ha [1]: 100%
- pest or weed control at 125 g/ha [1]: 100%
- pest or weed control at 16 g/ha [1]: 100%
- pest or weed control at 31 g/ha [2]: 15%
- pest or weed control at 62 g/ha [2]: 50%
- pest or weed control at 125 g/ha [2]: 60%
- pest or weed control at 16 g/ha [2]: 30%
- pest or weed control at 250 g/ha [3]: 75%
- pest or weed control at 250 g/ha [4]: 90%
- plant injury at 250 g/ha [5]: 85%
- pest or weed control at 250 g/ha [6]: 90%
- pest or weed control at 31 g/ha [7]: 80%
- pest or weed control at 125 g/ha [7]: 90%
- pest or weed control at 31 g/ha [8]: 80%
- pest or weed control at 125 g/ha [8]: 100%
- Corn plant response rating (crop injury, 0 = no effect, 100 = complete kill) at 31 g/ha [9]: 20%
- Corn plant response rating (crop injury, 0 = no effect, 100 = complete kill) at 125 g/ha [9]: 90%
- plant injury at 31 g/ha [10]: 30%
- plant injury at 125 g/ha [10]: 80%
- pest or weed control at 31 g/ha [11]: 20%
- pest or weed control at 125 g/ha [11]: 20%
- pest or weed control at 31 g/ha [12]: 100%
- pest or weed control at 125 g/ha [12]: 100%
- pest or weed control at 31 g/ha [13]: 20%
- pest or weed control at 125 g/ha [13]: 80%
- pest or weed control at 31 g/ha [14]: 30%
- pest or weed control at 125 g/ha [14]: 60%
- pest or weed control at 31 g/ha [15]: 40%
- pest or weed control at 125 g/ha [15]: 60%
- pest or weed control at 31 g/ha [16]: 90%
- pest or weed control at 125 g/ha [16]: 90%
- pest or weed control at 31 g/ha [17]: 80%
- pest or weed control at 125 g/ha [17]: 100%
- pest or weed control at 31 g/ha [18]: 0%
- pest or weed control at 125 g/ha [18]: 30%
- pest or weed control at 31 g/ha [19]: 10%
- pest or weed control at 125 g/ha [19]: 100%
- pest or weed control at 31 g/ha [20]: 80%
- pest or weed control at 125 g/ha [20]: 100%
- pest or weed control at 31 g/ha [21]: 0%
- pest or weed control at 125 g/ha [21]: 90%
- pest or weed control at 31 g/ha [22]: 100%
- pest or weed control at 125 g/ha [22]: 100%

Compound: N#Cc1cccc(Oc2ncc(Cl)cn2)c1Oc1cnc(Cl)cn1 [Compound 32, 2-[(5-chloro-2-pyrazinyl)oxy]-3-[(5-chloro-2-pyrimidinyl)oxy]benzonitrile]
- pest or weed control at 31 g/ha [1]: 100%
- pest or weed control at 62 g/ha [1]: 100%
- pest or weed control at 125 g/ha [1]: 100%
- pest or weed control at 16 g/ha [1]: 100%
- pest or weed control at 31 g/ha [2]: 50%
- pest or weed control at 62 g/ha [2]: 80%
- pest or weed control at 125 g/ha [2]: 90%
- pest or weed control at 16 g/ha [2]: 5%
- pest or weed control at 250 g/ha [3]: 90%
- pest or weed control at 250 g/ha [4]: 70%
- plant injury at 250 g/ha [5]: 40%
- pest or weed control at 250 g/ha [6]: 75%
- pest or weed control at 31 g/ha [7]: 60%
- pest or weed control at 125 g/ha [7]: 70%
- pest or weed control at 31 g/ha [8]: 90%
- pest or weed control at 125 g/ha [8]: 90%
- Corn plant response rating (crop injury, 0 = no effect, 100 = complete kill) at 31 g/ha [9]: 30%
- Corn plant response rating (crop injury, 0 = no effect, 100 = complete kill) at 125 g/ha [9]: 50%
- plant injury at 31 g/ha [10]: 0%
- plant injury at 125 g/ha [10]: 30%
- pest or weed control at 31 g/ha [11]: 10%
- pest or weed control at 125 g/ha [11]: 50%
- pest or weed control at 31 g/ha [12]: 90%
- pest or weed control at 125 g/ha [12]: 90%
- pest or weed control at 31 g/ha [13]: 40%
- pest or weed control at 125 g/ha [13]: 100%
- pest or weed control at 31 g/ha [14]: 50%
- pest or weed control at 125 g/ha [14]: 90%
- pest or weed control at 31 g/ha [15]: 10%
- pest or weed control at 125 g/ha [15]: 30%
- pest or weed control at 31 g/ha [16]: 100%
- pest or weed control at 125 g/ha [16]: 100%
- pest or weed control at 31 g/ha [17]: 100%
- pest or weed control at 125 g/ha [17]: 100%
- pest or weed control at 31 g/ha [18]: 10%
- pest or weed control at 125 g/ha [18]: 60%
- pest or weed control at 31 g/ha [19]: 30%
- pest or weed control at 125 g/ha [19]: 90%
- pest or weed control at 31 g/ha [20]: 100%
- pest or weed control at 125 g/ha [20]: 100%
- pest or weed control at 31 g/ha [21]: 0%
- pest or weed control at 125 g/ha [21]: 30%
- pest or weed control at 31 g/ha [22]: 100%
- pest or weed control at 125 g/ha [22]: 100%

— patent publication US20170190671A1, “BIS(ARYL)CATECHOL DERIVATIVES AS HERBICIDES” (E I DU PONT DE NEMOURS AND COMPANY, priority 2014, published 2017)
